Assay results: the supplement of paper PMC6045584
± gives the standard deviation of the averaged measurements.

Assays:
[1] = compound: CC(=O)NCC(=O)N1[C@@H]2CC[C@H]1c1ccc(Nc3ncc(C(F)(F)F)c(NC4CCC4)n3)cc12; test: surviving fraction relative to DMSO-only wells; higher = less growth inhibition; conditions: exposure time: 5 days
Outline: (§1)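 Tumour cell lines were seeded in log phase at 250–500 cells per well into 384-well plates. Starting 24 hours later, inhibitors were present continuously for five days at 0.5, 1, 5, 10, 50, 100, 500 and 1000 nM. Surviving fraction, from CellTiter-Glo luminescence, is normalised to the median of DMSO-only wells. Three screens per line were required, with replicate Pearson r >0.7 and median Z' >0.3 for a line to be kept.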

PACLITAXEL [2] = compound: T1, CC(=O)O[C@H]1C(=O)[C@@]2(C)[C@H]([C@H](OC(=O)c3ccccc3)[C@]3(O)C[C@H](OC(=O)[C@H](O)[C@@H](NC(=O)c4ccccc4)c4ccccc4)C(C)=C1C3(C)C)[C@]1(OC(C)=O)CO[C@@H]1C[C@@H]2O [PACLITAXEL]; test: as above; conditions: exposure time: 5 days
Outline: as §1

[3] = compound: CC(=O)c1c(C)c2cnc(Nc3ccc(N4CCNCC4)cn3)nc2n(C2CCCC2)c1=O; test: as above; conditions: exposure time: 5 days
Outline: as §1

CAMPTOTHECIN [4] = compound: T2, CC[C@@]1(O)C(=O)OCc2c1cc1n(c2=O)Cc2cc3ccccc3nc2-1 [CAMPTOTHECIN]; test: as above; conditions: exposure time: 5 days
Outline: as §1

YM155 [5] = compound: T3, COCC[n+]1c2c(n(Cc3cnccn3)c1C)C(=O)c1ccccc1C2=O [YM155]; test: as above; conditions: exposure time: 5 days
Outline: as §1

GEFITINIB [6] = compound: T4, COc1cc2ncnc(Nc3ccc(F)c(Cl)c3)c2cc1OCCCN1CCOCC1 [GEFITINIB]; test: as above; conditions: exposure time: 5 days
Outline: as §1

OSI-906 = compound: C[C@]1(O)C[C@@H](c2nc(-c3ccc4ccc(-c5ccccc5)nc4c3)c3c(N)nccn32)C1 [OSI-906]; test: as above; conditions: exposure time: 5 days
Outline: as §1

CELECOXIB [7] = compound: T5, Cc1ccc(-c2cc(C(F)(F)F)nn2-c2ccc(S(N)(=O)=O)cc2)cc1 [CELECOXIB]; test: as above; conditions: exposure time: 5 days
Outline: as §1

CARBOPLATIN [8] = compound: T6, O=C(O)C1(C(=O)O)CCC1.[NH2-].[NH2-].[Pt+2] [CARBOPLATIN]; test: as above; conditions: exposure time: 5 days
Outline: as §1

[9] = compound: CC(=O)NCC(=O)N1[C@@H]2CC[C@H]1c1ccc(Nc3ncc(C(F)(F)F)c(NC4CCC4)n3)cc12; test: area under dose-response curve of surviving fraction (unscaled, Aref=0) (surviving fraction x log10(nM)); higher = more resistant; conditions: exposure time: 5 days; dose range 0.5-1000 nM
Outline: (§2)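 Tumour cell lines in 384-well plates were exposed to eight inhibitor concentrations, from 0.5 to 1000 nM, for five days, and viability was read by CellTiter-Glo luminescence in three screens per line. Signals were normalised to DMSO-only wells, and 3-parameter logistic regression in the drc R package fitted dose-response survival curves to the surviving fractions. Area under the curve is given as the unscaled activity area. That area is taken over log10 dose with Aref = 0.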

PACLITAXEL [10] = compound: T1, PACLITAXEL; test: as above; conditions: exposure time: 5 days; dose range 0.5-1000 nM
Outline: as §2

[11] = compound: CC(=O)c1c(C)c2cnc(Nc3ccc(N4CCNCC4)cn3)nc2n(C2CCCC2)c1=O; test: as above; conditions: exposure time: 5 days; dose range 0.5-1000 nM
Outline: as §2

CAMPTOTHECIN [12] = compound: T2, CAMPTOTHECIN; test: as above; conditions: exposure time: 5 days; dose range 0.5-1000 nM
Outline: as §2

YM155 [13] = compound: T3, YM155; test: as above; conditions: exposure time: 5 days; dose range 0.5-1000 nM
Outline: as §2

GEFITINIB [14] = compound: T4, GEFITINIB; test: as above; conditions: exposure time: 5 days; dose range 0.5-1000 nM
Outline: as §2

CELECOXIB [15] = compound: T5, CELECOXIB; test: as above; conditions: exposure time: 5 days; dose range 0.5-1000 nM
Outline: as §2

CARBOPLATIN [16] = compound: T6, CARBOPLATIN; test: as above; conditions: exposure time: 5 days; dose range 0.5-1000 nM
Outline: as §2

Test System: SUM44 BREAST
- surviving fraction ([1]; 0.5 nM): 1.04 ± 0.039
- surviving fraction ([1]; 1 nM): 0.997 ± 0.013
- surviving fraction ([1]; 5 nM): 1.09 ± 0.028
- surviving fraction ([1]; 10 nM): 1.06 ± 0.13
- surviving fraction ([1]; 50 nM): 1.09 ± 0.025
- surviving fraction ([1]; 100 nM): 1.27 ± 0.045
- surviving fraction ([1]; 500 nM): 1.4 ± 0.056
- surviving fraction ([1]; 1000 nM): 1.26 ± 0.051
- surviving fraction (PACLITAXEL [2]; 0.5 nM): 0.927 ± 0.021
- surviving fraction (PACLITAXEL [2]; 1 nM): 0.515 ± 0.041
- surviving fraction (PACLITAXEL [2]; 5 nM): 0.403 ± 0.0066
- surviving fraction (PACLITAXEL [2]; 10 nM): 0.278 ± 0.0095
- surviving fraction (PACLITAXEL [2]; 50 nM): 0.241 ± 0.019
- surviving fraction (PACLITAXEL [2]; 100 nM): 0.213 ± 0.0074
- surviving fraction (PACLITAXEL [2]; 500 nM): 0.218 ± 0.0062
- surviving fraction (PACLITAXEL [2]; 1000 nM): 0.202 ± 0.011
- surviving fraction ([3]; 0.5 nM): 0.984 ± 0.044
- surviving fraction ([3]; 1 nM): 1.01 ± 0.028
- surviving fraction ([3]; 5 nM): 1.03 ± 0.062
- surviving fraction ([3]; 10 nM): 0.956 ± 0.044
- surviving fraction ([3]; 50 nM): 1.08 ± 0.1
- surviving fraction ([3]; 100 nM): 1.05 ± 0.043
- surviving fraction ([3]; 500 nM): 1.08 ± 0.068
- surviving fraction ([3]; 1000 nM): 1.086 ± 0.0082
- surviving fraction (CAMPTOTHECIN [4]; 0.5 nM): 0.808 ± 0.15
- surviving fraction (CAMPTOTHECIN [4]; 1 nM): 0.813 ± 0.082
- surviving fraction (CAMPTOTHECIN [4]; 5 nM): 0.835 ± 0.11
- surviving fraction (CAMPTOTHECIN [4]; 10 nM): 0.846 ± 0.056
- surviving fraction (CAMPTOTHECIN [4]; 50 nM): 0.985 ± 0.12
- surviving fraction (CAMPTOTHECIN [4]; 100 nM): 0.927 ± 0.096
- surviving fraction (CAMPTOTHECIN [4]; 500 nM): 0.326 ± 0.038
- surviving fraction (CAMPTOTHECIN [4]; 1000 nM): 0.231 ± 0.048
- surviving fraction (YM155 [5]; 0.5 nM): 1.05 ± 0.16
- surviving fraction (YM155 [5]; 1 nM): 1.15 ± 0.24
- surviving fraction (YM155 [5]; 5 nM): 1.1 ± 0.2
- surviving fraction (YM155 [5]; 10 nM): 1 ± 0.27
- surviving fraction (YM155 [5]; 50 nM): 0.358 ± 0.12
- surviving fraction (YM155 [5]; 100 nM): 0.225 ± 0.055
- surviving fraction (YM155 [5]; 500 nM): 0.121 ± 0.049
- surviving fraction (YM155 [5]; 1000 nM): 0.125 ± 0.064
- surviving fraction (GEFITINIB [6]; 0.5 nM): 1.27 ± 0.43
- surviving fraction (GEFITINIB [6]; 5 nM): 1.2 ± 0.32
- surviving fraction (GEFITINIB [6]; 10 nM): 1.19 ± 0.23
- surviving fraction (GEFITINIB [6]; 50 nM): 1.45 ± 0.42
- surviving fraction (GEFITINIB [6]; 100 nM): 1.33 ± 0.32
- surviving fraction (GEFITINIB [6]; 500 nM): 1.33 ± 0.49
- surviving fraction (GEFITINIB [6]; 1000 nM): 1.14 ± 0.22
- surviving fraction (OSI-906; 0.5 nM): 0.844 ± 0.044
- surviving fraction (OSI-906; 1 nM): 0.878 ± 0.1
- surviving fraction (OSI-906; 5 nM): 0.948 ± 0.047
- surviving fraction (OSI-906; 10 nM): 0.8813 ± 0.0072
- surviving fraction (OSI-906; 50 nM): 1.01 ± 0.17
- surviving fraction (OSI-906; 100 nM): 0.965 ± 0.14
- surviving fraction (OSI-906; 500 nM): 0.887 ± 0.18
- surviving fraction (OSI-906; 1000 nM): 0.862 ± 0.13
- surviving fraction (CELECOXIB [7]; 0.5 nM): 1.28 ± 0.4
- surviving fraction (CELECOXIB [7]; 1 nM): 1.25 ± 0.47
- surviving fraction (CELECOXIB [7]; 5 nM): 1.35 ± 0.54
- surviving fraction (CELECOXIB [7]; 10 nM): 1.26 ± 0.34
- surviving fraction (CELECOXIB [7]; 50 nM): 1.36 ± 0.47
- surviving fraction (CELECOXIB [7]; 100 nM): 1.46 ± 0.53
- surviving fraction (CELECOXIB [7]; 500 nM): 1.35 ± 0.5
- surviving fraction (CELECOXIB [7]; 1000 nM): 1.37 ± 0.42
- surviving fraction (CARBOPLATIN [8]; 0.5 nM): 1.15 ± 0.28
- surviving fraction (CARBOPLATIN [8]; 1 nM): 1.05 ± 0.14
- surviving fraction (CARBOPLATIN [8]; 5 nM): 1.16 ± 0.23
- surviving fraction (CARBOPLATIN [8]; 10 nM): 1.01 ± 0.2
- surviving fraction (CARBOPLATIN [8]; 50 nM): 1.28 ± 0.27
- surviving fraction (CARBOPLATIN [8]; 100 nM): 1.11 ± 0.1
- surviving fraction (CARBOPLATIN [8]; 500 nM): 1.2 ± 0.25
- surviving fraction (CARBOPLATIN [8]; 1000 nM): 1.07 ± 0.079
- area under dose-response curve [9]: 3.75
- area under dose-response curve (PACLITAXEL [10]): 1.04
- area under dose-response curve [11]: 3.41
- area under dose-response curve (CAMPTOTHECIN [12]): 2.82
- area under dose-response curve (YM155 [13]): 2.05
- area under dose-response curve (GEFITINIB [14]): 4.14
- area under dose-response curve (CELECOXIB [15]): 4.41
- area under dose-response curve (CARBOPLATIN [16]): 3.73
